Experimental data published in US4405642A, “Method for treatment or prophylaxis of cardiac disorders” (American Hospital Supply Corporation, priority 1980, dated 1983).
Counter-ions that a name gives are not always drawn.

Experiments:
[1] = target: T1, β-adrenergic receptors (guinea pig right atria) (Cavia porcellus, UniProt H0W3H1); test: β-blocking activity in vitro, guinea pig right atria (rate response to isoproterenol); assay type: cell-based; settings: vs isoproterenol, guinea pig right atria, 60 minute incubation, 37° C.; for Kb: read-out: pA2 Atria (converted)
T1 construct: Atria were allowed to beat spontaneously under a loading tension; from tissue; host or cells: guinea pig right atria (isolated, spontaneously beating)
Method: (§1) Each tissue was suspended between a fixed glass rod and a Statham® Universal Transducer connected to a Beckman® recorder. Atria were allowed to beat spontaneously under a loading tension of approximately 0.5 gm. Instrinsic depressant or stimulant activity was determined for each compound by progressively increasing concentrations in the tissue baths at 60-minute intervals. Tissues were not washed between increments. The maximum concentration showing little or no cardiodepressant activity was chosen for blockade experiments. Changes in rate in response to isoproterenol were measured in the absence and presence of test compounds. Spiral strips of guinea pig trachea were suspended under 5 gm resting tension and incubated with phentolamine, tropolone and cocaine. Active tension was generated by addition of carbachol (3.0×10^-7 M) and decreases in tension in response to isoproterenol were quantitated. Cumulative concentration-response curves were produced with isoproterenol both before and after 60 minute incubation of test compounds with atria and trachea. The blocking potency of test compounds was estimated by computing pA2 values (-log […]) by the method of Furchgott, The Pharmacological Differentiation of Adrenergic Receptors, Ann. […] The degree of cardioselectivity was estimated from the ratio, KB trachea/KB atria (10^(pA.sbsp.2^atria-pA.sbsp.2^trachea)). A ratio greater than one indicates cardioselectivity. Test drugs were dissolved in distilled water and added to the bath (30 ml) in a volume of 10 or 100 μl.

[2] = target: T2, β-adrenergic receptors (guinea pig tracheal strips) (Cavia porcellus, UniProt Q8K4Z4); test: β-blocking activity in vitro, guinea pig tracheal strips (tension response to isoproterenol); assay type: cell-based; settings: vs isoproterenol, 60 minute incubation, 37° C.; for Kb: read-out: pA2 Trachea (converted)
T2 construct: from tissue; host or cells: guinea pig trachea (isolated spiral strips)
Method: as §1

[3] = test system: heart rate response to isoproterenol; test: Duration of beta-blockade in vivo, anesthetized dogs, 40-minute infusion; set-up: species or system dog; settings: for Recovery Times 50%: 50% recovery of heart rate after 40-minute infusion; for Recovery Times 50% / Recovery Times 80% / Recovery Times 100%: normalized to 50% inhibition, dog; for Recovery Times 80%: 80% recovery of heart rate after 40-minute infusion; for Recovery Times 100%: 100% recovery of heart rate after 40-minute infusion; for ED50: Canis lupus familiaris, iv, 40 min, read-out: Potency
Method: (§2) The duration of beta-blockade was determined in vivo using pentobarbitalanesthetized dogs instrumented for measurement of heart rate using a Beckman® cardiotachometer triggered electronically by a phasic aortic blood pressure signal. Both vagus nerves were severed in the cervical region and the animals were mechanically ventilated. Two experimental designs were used. The first employed a 40-minute infusion of test compound and the second used a 3-hour infusion of test compound. In the 40-minute model, isoproterenol was infused into a foreleg vein at the rate of 0.5 μg/kg/min to induce a beta-receptor mediated tachycardia. Various doses of test compound where then infused into a femoral vein over a period of 40 minutes. This infusion was then terminated and recovery from blockade was quantitated. […] This cumulative dose is expressed as mg/kg and is an indication of potency. The time period required for 80% recovery of heart rate for each dose of test drug was also measured to quantitate duration of action. […] Test compounds were dissolved in 0.9% NaCl and infused at a rate of 0.05 ml/kg/min or less. In the 3-hour infusion model, bolus doses of isoproterenol (0.5 μg/kg) were used to assess the degree of beta-blockade and recovery from beta-blockade after termination of the infusion. The doses were spaced at 10-minute intervals and were given before, during and following the infusion of test compounds. The infusion rate was adjusted so that at the end of the 3-hour infusion period the degree of isoproterenol inhibition averaged about 50% of control.

[4] = test system: heart rate response to isoproterenol; test: Duration of beta-blockade in vivo, anesthetized dogs, 3-hour infusion; settings: dog; for 80% Recovery Time: after termination of 3-hour infusion; for % I (Percent inhibition of heart rate response to isoproterenol): end of 3-hour infusion, bolus isoproterenol 0.5 μg/kg
Method: as §2

[5] = Disappearance in vitro in human whole blood; assay type: in vitro ADME; settings: 50 μg test compound, 37° C., read-out: T1/2 Human Whole Blood
Method: (§3) The rate of disappearance of a compound is expressed as the half-life (T1/2), which is the time period in which one half of the initial amount of compound tested disappears. […] The samples were incubated in a Dubnoff shaking metabolic incubator for 2.5, 5.0, 10.0, 20.0, 30.0 and 60.0 minutes at 37° C. At the designated time periods, the test mixtures were removed from the incubator and transferred to a 0° C. ice bath. Acetonitrile (2 ml) was immediately added and the mixtures were mixed to stop enzymatic hydrolysis. Zero time samples were prepared by adding 2 ml. of acetonitrile to denature the proteins prior to addition of the test compounds. After centrifugation to sediment denatured proteins, 2 ml. of the supernatant was removed and analyzed by high pressure liquid chromatography, using a mobile phase of 60% acetonitrile/40% 0.05 m sodium phosphate buffer (pH 6.6), a U.V. detector and Waters® μ Bondapak Phenyl column. The half life of each test compound was determined graphically by plotting the decrease in concentration as a function of time.

[6] = Disappearance in vitro in dog whole blood; assay type: in vitro ADME; settings: 50 μg test compound, 37° C., read-out: T1/2 Dog Whole Blood
Method: as §3

[7] = Disappearance in vitro in dog liver homogenate; assay type: in vitro ADME; settings: 50 μg test compound, 33% (w/v) liver homogenate, 37° C., read-out: T1/2 Dog Liver Homogenate
Method: as §3

[8] = test system: β-adrenergic receptors (guinea pig right atria); test: β-blocking activity in vitro, guinea pig right atria (rate response to isoproterenol); assay type: cell-based; settings: ratio from pA2 atria and trachea; greater than one indicates cardioselectivity
Method: as §1

T1 sequence (H0W3H1 1-470): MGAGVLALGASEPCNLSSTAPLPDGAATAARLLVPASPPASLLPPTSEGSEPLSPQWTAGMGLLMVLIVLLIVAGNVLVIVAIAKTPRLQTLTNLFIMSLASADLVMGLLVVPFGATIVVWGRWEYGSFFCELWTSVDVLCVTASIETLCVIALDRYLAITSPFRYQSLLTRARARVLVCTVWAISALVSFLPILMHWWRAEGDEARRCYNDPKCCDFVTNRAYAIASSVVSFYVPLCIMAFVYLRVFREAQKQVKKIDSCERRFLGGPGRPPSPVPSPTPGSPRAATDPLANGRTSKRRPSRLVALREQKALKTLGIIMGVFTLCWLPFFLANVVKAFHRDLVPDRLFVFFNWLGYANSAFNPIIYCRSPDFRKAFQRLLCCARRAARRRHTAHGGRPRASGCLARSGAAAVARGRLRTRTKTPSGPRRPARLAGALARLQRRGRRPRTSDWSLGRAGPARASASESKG
T2 sequence (Q8K4Z4 whole entry): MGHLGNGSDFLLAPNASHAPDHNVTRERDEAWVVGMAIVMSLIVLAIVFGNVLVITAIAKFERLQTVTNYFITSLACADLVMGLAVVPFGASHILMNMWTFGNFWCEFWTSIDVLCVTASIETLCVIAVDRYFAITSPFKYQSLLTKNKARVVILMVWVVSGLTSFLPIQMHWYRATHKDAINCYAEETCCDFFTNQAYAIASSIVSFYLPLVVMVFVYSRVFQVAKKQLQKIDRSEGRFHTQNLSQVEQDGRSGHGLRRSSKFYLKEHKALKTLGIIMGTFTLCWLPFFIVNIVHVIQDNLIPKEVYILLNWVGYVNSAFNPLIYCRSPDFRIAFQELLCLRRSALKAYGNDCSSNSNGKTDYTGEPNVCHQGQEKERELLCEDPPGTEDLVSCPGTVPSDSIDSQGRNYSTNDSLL

Compound	pA2 Atria [1]	pA2 Trachea [2]	half-life [5] [min]	half-life [6] [min]	half-life [7] [min]	Kb [1] [µM]	Kb [2] [µM]	Recovery Times 50% [3] [min]	Recovery Times 80% [3] [min]	Recovery Times 100% [3] [min]	ED50 [3] [mg/kg]	80% Recovery Time [4] [min]	% I (Percent inhibition of heart rate response to isoproterenol) [4] [%]	Cardioselectivity KB (Trachea)/KB (Atria) [8]
CC(C)NCC(O)COC(=O)c1ccccc1Cl (stereo not drawn) [Example XII, [3-(Isopropylamino)-2-hydroxy]propyl 2-chlorobenzoate hydrochloride]	–	–	1.7 ± 0.6	28 ± 15	12 ± 4	–	–	19	30	51	1.75	–	–	–
Cc1ccccc1C(=O)OCC(O)CNC(C)C (stereo not drawn) [XVII]	–	–	> 180	> 180	147 ± 69	–	–	–	–	–	–	> 60	83	–
COc1ccc(C(=O)OCC(O)CNC(C)C)cc1 (stereo not drawn) [XXIII]	–	–	55 ± 5	150 ± 30	37 ± 20	1	0.501	–	–	–	–	> 60	67 ± 6	–
CC(C)(C)NCC(O)COC(=O)c1ccccc1Cl (stereo not drawn) [XXXVIII]	–	–	6 ± 2	30 ± 2	68 ± 4	–	–	–	–	–	–	–	67	–

Further lines, with some results ahead:

pA2 Atria [1]	pA2 Trachea [2]	half-life [5] [min]	half-life [6] [min]	half-life [7] [min]	Kb [1] [µM]	Kb [2] [µM]	Compound	Recovery Times 50% [3] [min]	Recovery Times 80% [3] [min]	Recovery Times 100% [3] [min]	ED50 [3] [mg/kg]	80% Recovery Time [4] [min]	% I (Percent inhibition of heart rate response to isoproterenol) [4] [%]	Cardioselectivity KB (Trachea)/KB (Atria) [8]
6.3	7.2	2.3 ± 0.6	6.8 ± 2	8 ± 3.5	–	–	CC(C)NCC(O)COC(=O)c1ccccc1 (stereo not drawn) [Example VI, [3-(Isopropylamino)-2-hydroxy]propyl Benzoate Hydrochloride]	7 ± 2	14 ± 3	21 ± 3	3.4 ± 1.1	26 ± 8	63 ± 8	–
–	–	6	67 ± 24	10 ± 4	0.158	0.158	Cc1ccc(C(=O)OCC(O)CNC(C)C)cc1 (stereo not drawn) [Example X]	11.0	20 ± 2	30.0	3.1 ± 0.3	–	–	1
–	–	1.4 ± 1	6 ± 2	17 ± 7	0.158	0.01	CC(C)(C)NCC(O)COC(=O)c1ccccc1F (stereo not drawn) [XXXIX]	–	–	–	–	17 ± 3	60 ± 2	–
